Columns and labels:
[1] = tested on: A2780; test: Caspase-3/7 apoptosis assay (Apo-ONE) in A2780; format: cell-based, human
Description: (§1) Apoptosis or programmed cell death is characterized by a set of biochemical reactions, one of which is the induction of caspases. Activated caspases are proteases that participate in a cascade of cleavage events that disable key enzymes responsible for cell homeostasis and repair. Caspases 3 and 7 play key effector roles in apoptosis and can be detected and measured by a fluorescent biochemical assay. The increase of Caspase-3/7 activity in cells is directly correlated to apoptotic activity. (D. W. Nicholson, et al., Nature, 376, 37-43 (1995)) The Promega Apo-ONE Homogeneous Caspase-3/7 Assay Kit was used (Catalog #G7791). The assay buffer consists of 30 mM HEPES (N-(2-hydroxyethyl)piperazine-M-(2-ethanesulfonic acid) pH 7.4, 150 mM NaCl, 50 mM KCl, 10 mM MgCl2, 0.4 mM EGTA (ethylene glycol tetraacetic acid), 0.5% Nonidet P40 (octylphenolpoly(ethyleneglycol ether)), 0.1% CHAPS (3-[(3-Cholamidopropyl)dimeth-ylammonio]-1-propanesulfonate hydrate and 10% sucrose, which lyses/permeabilizes cultured cells and a caspase 3/7 substrate, Z-DEVD (Z-Asp(OMe)-Glu(OMe)-Val-Asp(OMe)), coupled to a profluorescent rhodamine 110. When the buffer-substrate mixture is added to a test sample, the cleavage and subsequent removal of the DEVD peptides by caspase 3/7 activity results in intense fluorescence of the rhodamine 110 leaving group, which is detected by excitation at 499 nm. The amount of fluorescent product is proportional to the amount of caspase 3/7 cleavage activity in the sample.
(§2) To measure the apoptotic effect of test compounds, tumor cells are plated at 1×10^4 cells per well in 96 well plates and incubated overnight at 37° C., with 5% CO2. Tumor cells are treated with test compound at desired concentrations in triplicate, including untreated/negative control wells. […] At the end of the incubation period, a mixture of the assay buffer and substrate is added to each sample well. The fluorescence in each well is measured at an excitation wavelength of 485+/−20 nm and an emission wavelength of 530+/−25 nm. The % increase of caspase activity in treated cells is calculated relative to untreated controls.
(§3) The data in Tables 1-12 are expressed as % increase of caspase activity relative to untreated controls unless otherwise noted.

[2] = tested on: HCT-116; test: Caspase-3/7 apoptosis assay (Apo-ONE) in HCT-116; format: cell-based, human; conditions: 48 hrs
Description: as §1
(§4) To measure the apoptotic effect of test compounds, tumor cells are plated at 1×10^4 cells per well in 96 well plates and incubated overnight at 37° C., with 5% CO2. Tumor cells are treated with test compound at desired concentrations in triplicate, including untreated/negative control wells. The assay plates are re-incubated for 48 hrs. At the end of the incubation period, a mixture of the assay buffer and substrate is added to each sample well. The fluorescence in each well is measured at an excitation wavelength of 485+/−20 nm and an emission wavelength of 530+/−25 nm. The % increase of caspase activity in treated cells is calculated relative to untreated controls.
as §3

[3] = tested on: Colo-205; test: Caspase-3/7 apoptosis assay (Apo-ONE) in Colo-205; format: cell-based, human; conditions: 48 hrs
Description: as §1, §4, §3

[4] = tested on: MKN 45; test: Caspase-3/7 apoptosis assay (Apo-ONE) in MKN 45; format: cell-based
Description: as §1, §2, §3

[5] = tested on: AGS; test: Caspase-3/7 apoptosis assay (Apo-ONE) in AGS; format: cell-based; conditions: Cmpd I 900 nM
Description: as §1, §2, §3

[6] = tested on: A549; test: Caspase-3/7 apoptosis assay (Apo-ONE) in A549; format: cell-based; conditions: Compound I 300 nM, 48 hrs
Description: as §1, §4, §3

[7] = tested on: Colo-205 human colorectal carcinoma xenografts; test: Tumor growth delay, Colo-205 xenografts; format: in vivo, CD-1 nu/nu mice; conditions: cisplatin 5 mg/kg IP, Compound I 5 mg/kg IV, alone or combined, 3 cycles separated by 7 days, time to 1000 mm^3 vs control
Description: (§5) Cultured cells are implanted subcutaneously in the rear flank of female CD-1 nu/nu strain mice which have been acclimated for one week in the animal facility after receipt from the vendor. Mice are randomized into groups of 7 or 8 mice per group and treatment begun when the mean tumor volume reaches ˜100 mm^3 Compound I is dosed IV and the chemotherapeutic agent is given IP. When the agents are given in combination, the chemotherapeutic agent is dosed 60 minutes prior to Compound I. The tumors are measured 2 times per week by electronic calipers to plot growth curves. Tumor growth delay is the increase in median time it takes for a tumor to reach 1000 mm^3 in volume when compared to a control group. Animals are also monitored for fluctuations in body weight and survival.

[8] = tested on: A2780 human ovarian carcinoma xenografts; test: Tumor growth delay, A2780 xenografts; format: in vivo, CD-1 nu/nu mice; conditions: cisplatin 5 mg/kg IP, Compound I 5 mg/kg IV, alone or combined, 3 cycles separated by 7 days, time to 1000 mm^3 vs control
Description: as §5

[9] = tested on: HCT-116 human colorectal carcinoma xenografts; test: Tumor growth delay, HCT-116 xenografts; format: in vivo, CD-1 nu/nu mice; conditions: cisplatin 10 mg/kg IP, Compound I 5 mg/kg IV, alone or combined, 3 cycles separated by 7 days, time to 1000 mm^3 vs control
Description: as §5

[10] = tested on: KATO III; test: Caspase-3/7 apoptosis assay (Apo-ONE) in KATO III; format: cell-based; conditions: Cmpd I 600 nM, Cisplatin 10 μM, 48 hrs
Description: as §1, with “The amount of fluorescent product is proportional to the amount of caspase 3/7 cleavage activity in the sample.” left out

[11] = tested on: NCI-H460 human non-small cell lung cancer xenografts; test: Tumor growth delay, NCI-H460 xenografts; format: in vivo, CD-1 nu/nu mice; conditions: Compound I 5 mg/kg IV, time to 1000 mm^3 vs control
Description: as §5

[12] = tested on: Calu-6; test: Caspase-3/7 apoptosis assay (Apo-ONE) in Calu-6; format: cell-based; conditions: 48 hrs
Description: as §1, §4, §3

[13] = tested on: NCI-H460; test: Caspase-3/7 apoptosis assay (Apo-ONE) in NCI-H460; format: cell-based, human; conditions: 48 hrs
Description: as §1, §4, §3

[14] = tested on: SKOV3; test: Caspase-3/7 apoptosis assay (Apo-ONE) in SKOV3; format: cell-based; conditions: Cmpd I 300 nM, Doxorubicin 1 μM, 48 hrs
Description: as §1, with “The amount of fluorescent product is proportional to the amount of caspase 3/7 cleavage activity in the sample.” left out

[15] = Compound I 330 nM, CPT-11 20 nM, 48 hrs
[16] = Compound I 330 nM, CPT-11 20 nM
[17] = Cmpd I 300 nM, 5-FU 5 μM, plates incubated for 72 hours
[18] = Cmpd I 300 nM, Carboplatin 5 μM, plates incubated for 72 hours
[19] = Compound I 30 nM, pemetrexed 60 nM, 48 hrs
[20] = Compound I 60 nM, cisplatin 5 μM, 48 hrs
[21] = Cmpd I 60 nM, Gemcitabine 30 nM
[22] = Compound I 30 nM, pemetrexed 60 nM
[23] = Compound I 300 nM, cisplatin 5 μM
[24] = Compound I 110 nM, cisplatin 5 μM
[25] = Carboplatin 50 mg/kg IP, alone or combined, every 14 days × 3 cycles
[26] = Calu 6, Cmpd I 33 nM, Cisplatin 2 μM
[27] = Calu-6, Compound I 30 nM, pemetrexed 60 nM
[28] = NCI H-460, Cmpd I 300 nM, Etoposide 1 μM
[29] = NCI H-460, Cmpd I 300 nM, Gemcitabine 50 nM
[30] = NCI H-460, Cmpd I 300 nM, Pemetrexed 500 nM
[31] = NCI-H460, Compound I 100 nM, carboplatin 10 μM
[32] = NCI-H460, Compound I 300 nM, cisplatin 1 μM
[33] = Cmpd I 600 nM, Cisplatin 10 μM, 48 hrs
[34] = Cisplatin 5 μM, plates incubated for 72 hours

CCc1c2c(nc3ccc(OC(=O)N4CCC(N5CCCCC5)CC4)cc13)-c1cc3c(c(=O)n1C2)COC(=O)[C@]3(O)CC [CPT-11, irinotecan, reference compound]
% increase of caspase activity relative to untreated controls [1, 15]: 153% | % increase of caspase activity relative to untreated controls [2, 16]: 50% | % increase of caspase activity relative to untreated controls ([3]; Compound I 33 nM, CPT-11 20 nM): 38%

O=c1[nH]cc(F)c(=O)[nH]1 [Compound 5-FU, 5-fluorouracil, reference compound]
% increase of caspase activity relative to untreated controls ([2]; Cmpd I 12 nM, 5-FU 5 μM): 55% | % increase of caspase activity relative to untreated controls [4, 17]: 415% | % increase of caspase activity relative to untreated controls ([5]; 5-FU 3 μM, 48 hrs): 133%

O=C1NC(=O)C(c2cnc3ccccn23)=C1c1cn2c3c(cc(F)cc13)CN(C(=O)N1CCCCC1)CC2 [Compound I, 7-(2,5-dihydro-4-imidazo[1,2-a]pyridine-3-yl-2,5-dioxo-1H-pyrrol-3-yl)-9-fluoro-1,2,3,4-tetrahydro-2-(1-piperidinyl-carbonyl)-pyrrolo[3,2,1-jk][1,4]benzodiazepine]
% increase of caspase activity relative to untreated controls [1, 18]: 55% | % increase of caspase activity relative to untreated controls [1, 19]: 10% | % increase of caspase activity relative to untreated controls [1, 20]: 0% | % increase of caspase activity relative to untreated controls [1, 15]: 1% | % increase of caspase activity relative to untreated controls ([6]; carboplatin 10 μM): 52% | % increase of caspase activity relative to untreated controls ([6]; cisplatin 1 μM): 80% | Tumor Growth Delay Mean ± Standard Error [7]: 10.9 ± 2.2 days | Tumor Growth Delay Mean ± Standard Error [8]: -0.3 ± 1.4 days | Tumor Growth Delay Mean ± Standard Error [9]: 2 ± 2.2 days | % increase of caspase activity relative to untreated controls ([2]; Cmpd I 12 nM, 5-FU 5 μM): 47% | % increase of caspase activity relative to untreated controls [2, 21]: 0% | % increase of caspase activity relative to untreated controls [2, 22]: 0% | % increase of caspase activity relative to untreated controls [2, 23]: 16% | % increase of caspase activity relative to untreated controls [2, 16]: 53% | % increase of caspase activity relative to untreated controls ([3]; Compound I 33 nM, CPT-11 20 nM): 45% | % increase of caspase activity relative to untreated controls [3, 24]: 12% | % increase of caspase activity relative to untreated controls [10]: 48% | Tumor Growth Delay Mean ± Standard Error [11, 25]: 3 ± 1.4 days | Tumor Growth Delay Mean ± Standard Error ([11]; carboplatin 10 mg/kg IP, pemetrexed 300 mg/kg IP, every 14 days for 3 cycles): 1.4 ± 3.8 days | % increase of caspase activity relative to untreated controls [12, 26]: 154% | % increase of caspase activity relative to untreated controls [12, 27]: 139% | % increase of caspase activity relative to untreated controls [13, 28]: 222% | % increase of caspase activity relative to untreated controls [13, 29]: 186% | % increase of caspase activity relative to untreated controls [13, 30]: 38% | % increase of caspase activity relative to untreated controls [13, 31]: 122% | % increase of caspase activity relative to untreated controls [13, 32]: 99% | % increase of caspase activity relative to untreated controls [4, 17]: 105% | % increase of caspase activity relative to untreated controls [4, 33]: 162% | % increase of caspase activity relative to untreated controls [14]: 0% | % increase of caspase activity relative to untreated controls ([5]; 5-FU 3 μM, 48 hrs): 0% | % increase of caspase activity relative to untreated controls [5, 34]: 0%

COc1cccc2c1C(=O)c1c(O)c3c(c(O)c1C2=O)C[C@@](O)(C(=O)CO)C[C@@H]3O[C@H]1C[C@H](N)[C@H](O)[C@H](C)O1 [Doxorubicin, doxorubicin, reference compound]
% increase of caspase activity relative to untreated controls [14]: 184%

COc1cc([C@@H]2c3cc4c(cc3[C@@H](O[C@@H]3O[C@@H]5CO[C@@H](C)O[C@H]5[C@H](O)[C@H]3O)[C@H]3COC(=O)[C@H]23)OCO4)cc(OC)c1O [Etoposide, etoposide, reference compound]
% increase of caspase activity relative to untreated controls [13, 28]: 251%

Nc1ccn([C@@H]2O[C@H](CO)[C@@H](O)C2(F)F)c(=O)n1 [Gemcitabine, reference compound]
% increase of caspase activity relative to untreated controls [2, 21]: 324% | % increase of caspase activity relative to untreated controls [13, 29]: 1187%

Nc1nc2[nH]cc(CCc3ccc(C(=O)N[C@@H](CCC(=O)O)C(=O)O)cc3)c2c(=O)[nH]1 [Pemetrexed, pemetrexed, reference compound]
% increase of caspase activity relative to untreated controls [1, 19]: 0% | % increase of caspase activity relative to untreated controls [2, 22]: 23% | % increase of caspase activity relative to untreated controls [12, 27]: 24% | % increase of caspase activity relative to untreated controls [13, 30]: 185%

N.N.O=C([O-])C1(C(=O)[O-])CCC1.[Pt+2] [carboplatin, reference compound]
% increase of caspase activity relative to untreated controls [1, 18]: 78% | % increase of caspase activity relative to untreated controls ([6]; carboplatin 10 μM): 14% | Tumor Growth Delay Mean ± Standard Error [11, 25]: 2 ± 2.9 days | % increase of caspase activity relative to untreated controls [13, 31]: 16%

N.N.[Cl][Pt][Cl] [cisplatin, reference compound]
% increase of caspase activity relative to untreated controls [1, 20]: 1.5% | % increase of caspase activity relative to untreated controls ([6]; cisplatin 1 μM): 4% | Tumor Growth Delay Mean ± Standard Error [7]: 18 ± 3.5 days | Tumor Growth Delay Mean ± Standard Error [8]: 5 ± 1.6 days | Tumor Growth Delay Mean ± Standard Error [9]: 23 ± 10.3 days | % increase of caspase activity relative to untreated controls [2, 23]: 36% | % increase of caspase activity relative to untreated controls [3, 24]: 8% | % increase of caspase activity relative to untreated controls [10]: 389% | % increase of caspase activity relative to untreated controls [12, 26]: 97% | % increase of caspase activity relative to untreated controls [13, 32]: 47% | % increase of caspase activity relative to untreated controls [4, 33]: 359% | % increase of caspase activity relative to untreated controls [5, 34]: 147%
